Test systems include IGROV1 ovarian; SF-268 CNS; COLO 205 colon; CCRF-CEM leukemia; RPMI-8226 leukemia; NCI-H226 lung; MALME-3M melanoma; A549 NSCLC; A498 renal; MDA-MB-435.
Test in all cases: NCI tumour cell line growth inhibition, 48 h

Structures are written as SMILES.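 Compound exposure: 48 hours, 5 concentrations, 96-well plates. GI50 is the concentration that inhibits growth by half. TGI is the concentration that stops growth completely.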

Regarding `C=C1C(=O)O[C@H]2[C@H]1CC/C(Cn1cc(CCC)nn1)=C\CC[C@@]1(C)O[C@@H]21`, the GI50 is 4.63 µM with IGROV1 ovarian; 13.7 µM with SF-268 CNS; 5.22 µM with COLO 205 colon; 3 µM in the test on CCRF-CEM leukemia; 5.52 µM with RPMI-8226 leukemia; 12.6 µM in the test on NCI-H226 lung. Also, the GI50 in the test on MALME-3M melanoma is 4.7 µM; in the test on A549 NSCLC, 22.3 µM; in the test on A498 renal, 21.5 µM; in the test with MDA-MB-435, 10.4 µM. In addition, the TGI came out at 20.2 µM in the test on IGROV1 ovarian; 28.4 µM in the test on SF-268 CNS; 17.1 µM with COLO 205 colon; 9.71 µM with CCRF-CEM leukemia; 27.1 µM with RPMI-8226 leukemia; 33.4 µM in the test with NCI-H226 lung. Also, the TGI is 18.4 µM with MALME-3M melanoma, 44.3 µM in the test on A549 NSCLC, 36.6 µM with A498 renal and 24.9 µM with MDA-MB-435.

Consider `COc1ccc2c(CNCCCCO)cc3cc4c(cc3c2c1)OCO4`, for which the GI50 was 0.407 µM in the test with IGROV1 ovarian; 0.151 µM in the test on SF-268 CNS; 1.36 µM in the test on COLO 205 colon; 0.777 µM with CCRF-CEM leukemia; 0.655 µM in the test on RPMI-8226 leukemia; 0.638 µM in the test with NCI-H226 lung. For the same compound, the GI50 in the test on MALME-3M melanoma is 1.65 µM; with A549 NSCLC, 0.552 µM; in the test on A498 renal, 1.16 µM; with MDA-MB-435, 0.982 µM. Moreover, the TGI in the test on IGROV1 ovarian is 4.75 µM; with SF-268 CNS it was 1.15 µM; with COLO 205 colon it was 4.41 µM; in the test with CCRF-CEM leukemia, 10.9 µM; with RPMI-8226 leukemia, 3.77 µM; in the test on NCI-H226 lung, 1.62 µM. For the same compound, the TGI worked out at 4.08 µM in the test on MALME-3M melanoma, 6.07 µM in the test with A549 NSCLC, 2.98 µM with A498 renal and 3.54 µM with MDA-MB-435.

For `COC(=O)c1oc2c(C(=O)/C=C/c3ccc(OC)cc3)c(OCCCN3CCCCC3)ccc2c1C`, the GI50 is 0.782 µM in the test with IGROV1 ovarian; 2.24 µM in the test on SF-268 CNS; 1.51 µM with COLO 205 colon; 0.783 µM in the test on CCRF-CEM leukemia; 1.72 µM in the test on RPMI-8226 leukemia; 2.32 µM with NCI-H226 lung. Besides, the GI50 in the test on MALME-3M melanoma was 1.51 µM; with A549 NSCLC it was 2.04 µM; in the test on A498 renal, 1.44 µM; with MDA-MB-435, 1.67 µM. Moreover, the TGI in the test on IGROV1 ovarian was 4.43 µM; with SF-268 CNS, 4.69 µM; in the test with COLO 205 colon, 3.13 µM; with CCRF-CEM leukemia it was 3.4 µM; in the test on RPMI-8226 leukemia it was 4 µM; with NCI-H226 lung it was 6.38 µM. In addition, the TGI came out at 3.3 µM in the test on MALME-3M melanoma, 5.28 µM in the test with A549 NSCLC, 4.54 µM in the test with A498 renal and 3.68 µM in the test on MDA-MB-435.

On to `Cc1ccc(/C=C(\C#N)n2nnc3cc(F)c(F)cc32)cc1`, for which the GI50 in the test on IGROV1 ovarian is 3.43 µM; with SF-268 CNS, 3.63 µM; in the test with COLO 205 colon, 1.82 µM; with CCRF-CEM leukemia, 1.81 µM; in the test on RPMI-8226 leukemia, 2.85 µM; in the test on NCI-H226 lung it was 6.45 µM. Also, the GI50 was 15.9 µM with MALME-3M melanoma, 2.28 µM in the test with A549 NSCLC, 2.51 µM in the test on A498 renal and 0.36 µM in the test on MDA-MB-435. Moreover, the TGI in the test on IGROV1 ovarian was 32.1 µM; in the test with SF-268 CNS, 20.9 µM; in the test with COLO 205 colon, 3.76 µM; in the test on CCRF-CEM leukemia, more than 100 µM; in the test with RPMI-8226 leukemia, 8.71 µM; in the test on NCI-H226 lung it was 63.2 µM. Besides, the TGI came to 56.7 µM in the test on MALME-3M melanoma, 7.3 µM in the test with A549 NSCLC, 7.84 µM with A498 renal and 17.2 µM in the test on MDA-MB-435.

Consider `CC(C)(C)c1ccc(-c2nnc(SCc3ccc(Cl)cc3)n2-c2cccc(C(F)(F)F)c2)cc1`, for which the TGI with IGROV1 ovarian was more than 100 µM; with SF-268 CNS it was more than 100 µM; in the test on COLO 205 colon it was 23.4 µM; in the test with CCRF-CEM leukemia it was more than 100 µM; in the test with RPMI-8226 leukemia, 30.6 µM; with NCI-H226 lung it was 97.3 µM. Besides, the TGI in the test on MALME-3M melanoma, in the test with A549 NSCLC, in the test on A498 renal and in the test on MDA-MB-435 was more than 100 µM each time.

As to `O=C1/C(=C/c2ccc(O)cc2)CCC1CNc1ccc(Cl)cc1` (stereo not given), the TGI with IGROV1 ovarian was found to be 15.1 µM; in the test with SF-268 CNS, 19.8 µM; in the test with COLO 205 colon it was 3.24 µM; in the test with CCRF-CEM leukemia, 11.2 µM; with RPMI-8226 leukemia, 10.8 µM; with NCI-H226 lung, 25.8 µM. Further, the TGI with MALME-3M melanoma came out at 8.57 µM; in the test on A549 NSCLC it was 21.6 µM; in the test with A498 renal, 28.4 µM; with MDA-MB-435, 17.3 µM.

With `CO/N=C1/c2cc(OC)ccc2-c2c(NOC)nc3ccccc3c21`, the GI50 with IGROV1 ovarian is 18 µM; in the test on SF-268 CNS it was 41.6 µM; with COLO 205 colon it was 41.3 µM; in the test on CCRF-CEM leukemia it was 70.1 µM; in the test with RPMI-8226 leukemia it was 40.6 µM; in the test on NCI-H226 lung, 35.1 µM. The GI50 in the test with MALME-3M melanoma was 0.103 µM; in the test with A549 NSCLC, 16 µM; with A498 renal, 16.1 µM; with MDA-MB-435, more than 100 µM. Besides, the TGI in the test on IGROV1 ovarian was 44.2 µM; in the test with SF-268 CNS, more than 100 µM; in the test on COLO 205 colon, more than 100 µM; in the test on CCRF-CEM leukemia it was more than 100 µM; in the test on RPMI-8226 leukemia it was more than 100 µM; in the test with NCI-H226 lung, more than 100 µM. Also, the TGI is 23.7 µM with MALME-3M melanoma, 37.3 µM with A549 NSCLC, 36.9 µM in the test with A498 renal and more than 100 µM with MDA-MB-435.

Consider `CCOc1ccc2c(c1)/C(=C\C=C\C1CC(C)C3CC(OCC)CCC3N1CC)CC(C)N2CC` (stereo not given), for which the GI50 was 1.11 µM with IGROV1 ovarian; 0.882 µM in the test on SF-268 CNS; 1.36 µM in the test on COLO 205 colon; 0.472 µM in the test on CCRF-CEM leukemia; 0.269 µM in the test with RPMI-8226 leukemia; 1.06 µM in the test on NCI-H226 lung. Also, the GI50 in the test with MALME-3M melanoma is 1.61 µM; in the test on A549 NSCLC, 0.304 µM; with A498 renal, 0.378 µM; with MDA-MB-435 it was 0.905 µM. Besides, the TGI in the test with IGROV1 ovarian was determined as 3.13 µM; with SF-268 CNS it was 2.41 µM; in the test with COLO 205 colon, 2.82 µM; in the test on CCRF-CEM leukemia, 2.71 µM; with RPMI-8226 leukemia it was 1.65 µM; in the test with NCI-H226 lung, 2.79 µM. Besides, the TGI is 3.42 µM in the test on MALME-3M melanoma, 1.46 µM with A549 NSCLC, 1.83 µM in the test with A498 renal and 2.31 µM in the test with MDA-MB-435.

Source of the values: PubChem BioAssay (NCI).
